Data published in paper PMC6301270 (MedChemComm, 2018).
“Also recorded” adds a separate entry of the source. Like-named read-outs stand apart in the source and are kept apart here.

Legend:
[1] = test system: T.b. brucei (strain 427) bloodstream form parasites; experiment: Trypanosoma brucei assay, dose–response (this study); assay type: cell-based; conditions: for IC50: Trypanosoma brucei; for Selectivity index: calculated as IC50(HeLa)/IC50(T.bb)
[2] = test system: T.b. brucei (strain 427) bloodstream form parasites; experiment: T.b. brucei single concentration screen (10 μM); conditions: for viability at 10 µM: Trypanosoma brucei, read-out: T.b.brucei % viability (10 µM); for T.b.brucei % viability (10 µM): single concentration 10 µM, % parasite viability relative to non-treated parasites
T.b. brucei = test system: T.b. brucei; design: method as in https://www.pathogenbox.org/; conditions: Table 1, kinetoplastid category; ref https://www.pathogenbox.org/; read-out: T. brucei brucei IC50 (μM) Pathogen Box; cited from earlier work
HeLa cells = experiment: HeLa cell assay (cytotoxicity); assay type: cell-based; conditions: Homo sapiens, HeLa cells, 48 hours, resazurin, read-out: HeLa IC50
Method: HeLa cells were cultured in DMEM medium supplemented with 10% fetal bovine serum and antibiotics (penicillin/streptomycin/amphotericin B) at 37 °C in a 5% CO2 incubator. On the day prior to compound addition, cells were plated in 96-well plates at 2 × 10^4 cells per well. Compounds were added to the cells in 3-fold serial dilutions and incubation at 37 °C in a 5% CO2 incubator continued for 48 hours. Twenty μl resazurin reagent (0.5 mM resazurin in phosphate-buffered saline) was added to each well and, after a 2-hour incubation, fluorescence (Exc560/Em590) was measured in a plate reader. Percentage cell viability in drug-treated wells was calculated from the fluorescent readings obtained relative to those in wells containing control, untreated cells. Plots of % cell viability vs. log[compound] were used to determine IC50 values by non-linear regression analysis using GraphPad Prism.

[3] = Table 1, kinetoplastid category, 48 hours at 37 °C, resazurin, read-out: T. brucei brucei IC50 (μM) This study
[4] = Table 2, remaining Pathogen Box, 48 hours at 37 °C, resazurin, read-out: T. brucei brucei IC50 (μM) This study
[5] = pIC50 values (M), read-out: pIC50 (T.b. brucei), this study (converted)

O=C(Nc1ccc(F)c(-c2nc3cc(-c4ccccc4)cnc3[nH]2)c1)N1CCCC1 [Compound 2, FC1=C(C=C(NC(=O)N2CCCC2)C=C1)C1=NC2=CC(=CN=C2N1)C1=CC=CC=C1]
IC50 [1, 3]: 0.049 µM
viability at 10 µM [2]: 2%
IC50 (T.b. brucei): < 0.13 µM
IC50 (HeLa cells; Table 1): 0.8 µM

CC1CCCCN1C(=O)NCCc1coc(-c2ccc(F)cc2)n1 (stereo not drawn) [Compound 5, CC1CCCCN1C(=O)NCCc2coc(n2)c3ccc(F)cc3]
IC50 [1, 3]: 0.05 µM
viability at 10 µM [2]: 2.2%
IC50 (HeLa cells; Table 1): > 25 µM

N=C(N)c1ccc(-c2cc(-c3ccccc3)on2)cc1 [Compound 26, NC(=N)c1ccc(cc1)c2cc(on2)c3ccccc3]
viability at 10 µM [2]: 14%
T.b.brucei % viability (10 µM) [2]: did not sufficiently reduce cell viability
IC50 (T.b. brucei): 4.06 µM

CCN(CC)S(=O)(=O)c1ccc(C(=O)Nc2cc(C)nn2-c2nc(C)c(C)c(=O)[nH]2)cc1 [Compound 27, CC1=C(C)C(NC(N2N=C(C)C=C2NC(C3=CC=C(S(=O)(N(CC)CC)=O)C=C3)=O)=N1)=O]
viability at 10 µM [2]: 58%
T.b.brucei % viability (10 µM) [2]: did not sufficiently reduce cell viability
IC50 (T.b. brucei): 5.3 µM

N=C(N)Nc1ccc(-c2ccc(-c3ccc(NC(=N)N)cc3Cl)o2)c(Cl)c1 [Compound 32, NC(=N)Nc1ccc(c(Cl)c1)c2oc(cc2)c3ccc(NC(=N)N)cc3Cl]
viability at 10 µM [2]: 17%
T.b.brucei % viability (10 µM) [2]: did not sufficiently reduce cell viability
IC50 (T.b. brucei): 1.03 µM

c1ccc(-c2nc(NC3CCCCC3)cc(C3CC3)n2)nc1 [Compound 35, C1CCC(CC1)Nc2cc(nc(n2)c3ccccn3)C4CC4]
T.b. brucei inhibition in words, this study [1]: sub-micromolar range; also recorded: activity in the nanomolar range
IC50 [1, 4]: 0.83 µM
IC50 [1, 5]: < 1 µM
viability at 10 µM [2]: 2%
IC50 (HeLa cells; Table 2): > 25 µM

Cc1ccc2[nH]c(C3CCCNC3)c(-c3ccncc3)c2c1 (stereo not drawn) [Compound 36, Cc1ccc2[nH]c(C3CCCNC3)c(c4ccncc4)c2c1]
IC50 [1, 4]: 2.2 µM
Selectivity index [1]: 4.0
viability at 10 µM [2]: 1%
IC50 (HeLa cells; Table 2): 8.9 µM

CCOC(=O)c1c(NC(=O)c2c(F)c(F)c(F)c(F)c2F)sc(C(N)=O)c1C [Compound 37, CCOC(=O)c1c(C)c(sc1NC(=O)c2c(F)c(F)c(F)c(F)c2F)C(=O)N]
IC50 [1, 4]: 11 µM
Selectivity index [1]: > 2.2
viability at 10 µM [2]: 7%
IC50 (HeLa cells; Table 2): > 25 µM

COC(=O)c1c(NC(=O)c2c(F)c(F)c(F)c(F)c2F)sc2c1CCCCC2 [Compound 38, COC(=O)c1c2CCCCCc2sc1NC(=O)c3c(F)c(F)c(F)c(F)c3F]
IC50 [1, 4]: 11 µM
Selectivity index [1]: > 2.2
viability at 10 µM [2]: 7%
IC50 (HeLa cells; Table 2): > 25 µM

O=C(Nc1nc(-c2ccccn2)cs1)c1cncn1-c1ccccc1 [Compound 41, O=C(Nc1nc(cs1)c2ccccn2)c3cncn3c4ccccc4]
IC50 [1, 4]: 1.1 µM
Selectivity index [1]: 4.6
viability at 10 µM [2]: 1%
IC50 (HeLa cells; Table 2): 5.1 µM

CC(C)=CCC/C(C)=C\CNCCNC1C2CC3CC(C2)CC1C3 (stereo not drawn) [Compound 42, CC(=CCC\C(=C/CNCCNC1C2CC3CC(CC1C3)C2)\C)C]
IC50 [1, 4]: 2.3 µM
Selectivity index [1]: 6.5
viability at 10 µM [2]: 2%
IC50 (HeLa cells; Table 2): 15 µM

COc1cccc(-c2nc3c(N4CCCC4)cccc3n2CC2CCCN2)n1 (stereo not drawn) [Compound 44, COc1cccc(n1)c2nc3c(cccc3n2CC4CCCN4)N5CCCC5]
IC50 [1, 4]: 4.2 µM
Selectivity index [1]: 5.2
viability at 10 µM [2]: 4%
IC50 (HeLa cells; Table 2): 22 µM

Cc1cnc(N2CCN[C@@H](Cc3ccccc3)C2)nc1Oc1ccc(-n2ccnc2)cc1 [Compound 45, Cc1cnc(nc1Oc2ccc(cc2)n3ccnc3)N4CCN[C@@H](Cc5ccccc5)C4]
IC50 [1, 4]: 5.1 µM
Selectivity index [1]: > 4.9
viability at 10 µM [2]: 10%
IC50 (HeLa cells; Table 2): > 25 µM

COc1ccc2nccc(NC(=O)C3CCN(CCc4ccc(Cl)cc4)CC3)c2n1 [Compound 47, COc1ccc2nccc(NC(=O)C3CCN(CCc4ccc(Cl)cc4)CC3)c2n1]
IC50 [1, 4]: 29 µM
viability at 10 µM [2]: 7%
IC50 (HeLa cells; Table 2): > 25 µM

COc1ccc(OC)c(NCc2ccc3nc(N)nc(N)c3c2Cl)c1 [Compound 48, COc1ccc(OC)c(NCc2ccc3nc(N)nc(N)c3c2Cl)c1]
IC50 [1, 4]: 1.2 µM
Selectivity index [1]: > 21
viability at 10 µM [2]: 12%
IC50 (HeLa cells; Table 2): > 25 µM

Cc1cc(C2=NOC(c3cc(Cl)c(F)c(Cl)c3)(C(F)(F)F)C2)ccc1C(=O)NCc1ccc2c(c1)C(C)(C)OB2O (stereo not drawn) [Compound 49, Cc1cc(ccc1C(=O)NCc2ccc3B(O)OC(C)(C)c3c2)C4=NOC(C4)(c5cc(Cl)c(F)c(Cl)c5)C(F)(F)F]
IC50 [1, 4]: 1.2 µM
Selectivity index [1]: 8.3
viability at 10 µM [2]: 1%
IC50 (HeLa cells; Table 2): 10 µM

CC(C)n1nc(-c2cc3c(Cl)cccc3[nH]2)c2c(N)ncnc21 [Compound 50, CC(C)n1nc(-c2cc3c(Cl)cccc3[nH]2)c2c(N)ncnc12]
IC50 [1, 4]: 4.3 µM
Selectivity index [1]: > 5.8
viability at 10 µM [2]: 4%
IC50 (HeLa cells; Table 2): > 25 µM

CN(C)c1cc(NC(=O)Nc2ccccc2)c2ccccc2n1 [Compound 52, CN(C)c1cc(NC(=O)Nc2ccccc2)c3ccccc3n1]
IC50 [1, 4]: 4.7 µM
Selectivity index [1]: > 5.3
viability at 10 µM [2]: 1%
IC50 (HeLa cells; Table 2): > 25 µM

Cc1ccc2c(c1C)NC(=O)C21NN=C(c2ccccc2)S1 (stereo not drawn) [Compound 54, Cc1ccc2c(NC(=O)C23NN=C(S3)c4ccccc4)c1C]
T.b. brucei inhibition in words, this study [1]: sub-micromolar range
IC50 [1, 4]: 1 µM
IC50 [1, 5]: < 1 µM
Selectivity index [1]: 6.6
viability at 10 µM [2]: 3%
IC50 (HeLa cells; Table 2): 6.6 µM

CC(C)C(C(=O)Nc1ccc(S(=O)(=O)N(C)C)cc1)c1ccc(Cl)cc1 (stereo not drawn) [Compound 55, CC(C)C(C(=O)Nc1ccc(cc1)S(=O)(=O)N(C)C)c2ccc(Cl)cc2]
IC50 [1, 4]: 6.5 µM
Selectivity index [1]: 1.8
viability at 10 µM [2]: 8%
IC50 (HeLa cells; Table 2): 12 µM

CN1CCC(NCc2cccc(-c3ccc(S(=O)(=O)NCc4ccccc4)cc3)c2)CC1 [Compound 56, CN1CCC(CC1)NCc2cccc(c2)c3ccc(cc3)S(=O)(=O)NCc4ccccc4]
T.b. brucei inhibition in words, this study [1]: sub-micromolar range; also recorded: activity in the nanomolar range
IC50 [1, 4]: 0.22 µM
IC50 [1, 5]: < 1 µM
viability at 10 µM [2]: 2%
IC50 (HeLa cells; Table 2): 13 µM

Nc1nccc2ccc(-c3ccc4nccn4c3)cc12 [Compound 57, Nc1nccc2ccc(cc12)c3ccc4nccn4c3]
IC50 [1, 4]: 1.2 µM
Selectivity index [1]: 4.5
viability at 10 µM [2]: 3%
IC50 (HeLa cells; Table 2): 5.4 µM

OCCc1ccc(Nc2nccc(-c3nnc4ccccn34)n2)cc1 [Compound 58, OCCc1ccc(Nc2nccc(n2)c3nnc4ccccn34)cc1]
IC50 [1, 4]: 1.5 µM
Selectivity index [1]: > 17
viability at 10 µM [2]: 11%
IC50 (HeLa cells; Table 2): > 25 µM

CCCn1c(NC(=O)c2ccc3ccccc3n2)nc2ccccc21 [Compound 59, CCCn1c(NC(=O)c2ccc3ccccc3n2)nc4ccccc14]
IC50 [1, 4]: 7.1 µM
Selectivity index [1]: > 3.5
viability at 10 µM [2]: 2%
IC50 (HeLa cells; Table 2): > 25 µM

Oc1c(I)cc(I)c2cccnc12 [Compound 60, Oc1c(I)cc(I)c2cccnc12]
IC50 [1, 4]: 2 µM
Selectivity index [1]: > 13
viability at 10 µM [2]: 1%
IC50 (HeLa cells; Table 2): > 25 µM

CS(=O)(=O)c1ccc(C(=O)N(CC2CCCO2)c2nc3ccccc3s2)cc1[N+](=O)[O-] (stereo not drawn) [Compound 61, CS(=O)(=O)c1ccc(cc1[N+](=O)[O-])C(=O)N(CC2CCCO2)c3nc4ccccc4s3]
IC50 [1, 4]: 11 µM
Selectivity index [1]: > 2.3
viability at 10 µM [2]: 0%
IC50 (HeLa cells; Table 2): > 25 µM

CC[C@H]1CN2CCc3cc(OC)c(OC)cc3[C@@H]2C[C@@H]1C[C@H]1NCCc2cc(OC)c(OC)cc21 [Emetine, reference compound]
IC50 (HeLa cells; Table 1): 0.4 µM

O=C(Nc1nc(-c2ccccn2)cs1)C1CC1c1ccccc1F (stereo not drawn) [MMV1028806, Fc1ccccc1C2CC2C(=O)Nc3nc(cs3)c4ccccn4]
viability at 10 µM [2]: 63%

CNC(=O)CNc1nc(-c2ccccn2)nc2scc(-c3ccccc3)c12 [MMV1029203, CNC(=O)CNc1nc(nc2scc(c3ccccc3)c12)c4ccccn4]
viability at 10 µM [2]: 98%

CCNC(=O)C(C)Nc1nc(-c2cccnc2)nc2sc(C)c(C)c12 (stereo not drawn) [MMV1037162, CCNC(=O)C(C)Nc1nc(nc2sc(C)c(C)c12)c3cccnc3]
viability at 10 µM [2]: 85%

Cc1ccc(-c2nc(CN(Cc3ccccn3)C(C)C)cs2)o1 [MMV1088520, CC(C)N(Cc1ccccn1)Cc2csc(n2)c3oc(C)cc3]
viability at 10 µM [2]: 72%

COc1cccn2c(C(=O)N3CCCCC3)c(C(F)(F)F)nc12 [MMV1110498, FC(F)(F)C1=C(C(N2CCCCC2)=O)N(C=CC=C3OC)C3=N1]
viability at 10 µM [2]: 99%

Cc1cc(OCC(=O)Nc2ccc(C(C)C)cc2)n(C)c(=O)c1C#N [MMV1198433, CC(C)c1ccc(NC(=O)COC2=CC(=C(C#N)C(=O)N2C)C)cc1]
viability at 10 µM [2]: 70%

N=C(N)c1ccc(OCCCCCOc2ccc(C(=N)N)cc2)cc1 [Pentamidine, reference compound]
IC50 [1, 3]: 0.0031 µM
